Assay results from US8071651B2, “5-amino-4-hydroxy-7-(imidazo [1,2-A] pyridin-6-ylmethyl)-8-methyl-nonamide derivatives and related compounds as renin inhibitors for the treatment of hypertension” (Novartis AG, priority 2005, dated 2011).
pIC50: −log10 of the molar value.

Each compound was assayed against T1, renin (Homo sapiens, UniProt P00797) (assay: in vitro test of Nussberger et al.: formation of angiotensin I in human plasma, determined by radio-immunoassay). Details: concentration of inhibitor which reduces the formation of angiotensin I in human plasma by 50%.
T1 construct: This test measures the formation of angiotensin I in human plasma; from tissue; host or cells: human plasma
T1 sequence (P00797 67-406): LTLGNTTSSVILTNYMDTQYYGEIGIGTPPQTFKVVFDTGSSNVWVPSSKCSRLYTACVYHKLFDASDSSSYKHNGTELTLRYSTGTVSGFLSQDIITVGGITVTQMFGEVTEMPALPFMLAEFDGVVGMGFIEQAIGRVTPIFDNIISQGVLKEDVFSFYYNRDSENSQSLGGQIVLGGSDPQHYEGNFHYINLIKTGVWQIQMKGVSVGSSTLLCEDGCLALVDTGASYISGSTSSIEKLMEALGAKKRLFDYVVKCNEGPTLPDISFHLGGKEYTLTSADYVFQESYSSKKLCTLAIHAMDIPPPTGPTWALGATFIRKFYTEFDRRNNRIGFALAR
Type: biochemical
Procedure: The effect of renin inhibitors is detected inter alia experimentally by means of in vitro tests where the reduction in the formation of angiotensin I is measured in various systems (human plasma, purified human renin together with synthetic or natural renin substrate). The following in vitro test of Nussberger et al. (1987) J. Cardiovascular Pharmacol., Vol. 9, pp. 39-44, is used, inter alia. This test measures the formation of angiotensin I in human plasma. The amount of angiotensin I formed is determined in a subsequent radio-immunoassay. The effect of inhibitors on the formation of angiotensin I is tested in this system by adding various concentrations of these substances. The IC50 is defined as the concentration of the particular inhibitor which reduces the formation of angiotensin I by 50%. The compounds of the present invention show inhibitory effects in the in vitro systems at minimal concentrations of about 10^−6 to about 10^−10 mol/l.

Row | SMILES | pIC50
1 | COCCCCc1cc(CC(CC(N)C(O)CC(C(=O)NCC2CCOCC2)C(C)C)C(C)C)cc(C)n1 (centres unmarked) [Example 32JJJ] | 8.59
2 | COCCCCc1cc(CC(CC(N)C(O)CC(C(=O)NCC2C3COCC23)C(C)C)C(C)C)cnc1OC (centres unmarked) [Example 36BBBB] | 8.32
3 | COCCCCc1cc(CC(CC(N)C(O)CC(C(=O)NC2C3COCC32)C(C)C)C(C)C)cnc1OC (centres unmarked) [Example 36DDDD] | 8.51

The next lines start with the values.

Row | pIC50 | SMILES
4 | 8.54 | COCCCCc1cc(CC(CC(N)C(O)CC(C(=O)NCC2CC23CCOCC3)C(C)C)C(C)C)cnc1OC (centres unmarked) [Example 36HHHH]
5 | 8.46 | COCCCCc1cc(CC(CC(N)C(O)CC(C(=O)NCC2CC23CCOCC3)C(C)C)C(C)C)cnc1OC (centres unmarked) [Example 36IIII]
